Data taken from patent US20250207131A1, “MODIFIED RNA AGENTS WITH REDUCED OFF-TARGET EFFECT” (Alnylam Pharmaceuticals, Inc., priority 2018, published 2025).
In the oligonucleotide strings, read from the 5' end, every base follows the letter of its sugar. An asterisk marks phosphorothioate; unmarked linkages are phosphodiester. Other units and linkages are bracketed, terminal groups are in braces. A string of capitals states the bases alone. [5'S-Me-N] = (S)-5'-C-methyl nucleoside (N: the base); d = 2'-deoxy (DNA); r = 2'-OH (RNA)

Assays:
phosphodiesterase II = assay: Stability toward 5′-specific exonuclease (phosphodiesterase II); format: in vitro ADME; conditions: oligo 0.1 mg/mL, 50 mM NaOAc (pH 6.5), 10 mM MgCl2; for Half-lives (T1/2), ty2: Phosphodiesterase-II 500 mU/mL; for Half-lives (T1/2), t12: reduced Phosphodiesterase-II concentration 100 mU/mL
Experimental: Stability of modified oligonucleotides toward 3′- or 5′-specific exonucleases: Oligonucleotides were prepared in a final concentration of 0.1 mg/mL in either 50 mM Tris (pH 7.2), 10 mM MgCl2 or 50 mM sodium acetate (pH 6.5), 10 mM MgCl2 for assessing the stability towards 3′- or 5′-specific exonucleases, respectively. The exonuclease (150 mU/mL SVPDE for 3′-stability or 500 mU/mL phosphodiesterase II for 5′-stability) was added immediately prior to analysis via IEX HPLC (dionex DNAPac PA200, 4×250 mm) using a gradient of 37-52% mobile phase (1 M NaBr, 20 mM sodium phosphate, pH 11, 15% MeCN; stationary phase: 20 mM sodium phosphate, 15% MeCN, pH 11) over 7.5 min with a flow of 1 mL/min. Samples were analyzed at given time points for up to 24 h. The quantity of full length oligonucleotides was determined as the area under the curve at A260. Percent full length oligonucleotides was calculated by dividing by the area under the curve at t=0 and multiplying by 100. Activity of enzyme was verified for each experiment by including a oligodeoxythymidylate with a terminal phosphorothioate linkage (5′-T19·T (SEQ ID NO: 708) or 5′-T·T19 (SEQ ID NO: 708) for 3′- or 5′-exonuclease activity, respectively). Each aliquot of enzyme was thawed just prior to the experiment. The half-life was determined by fitting to first order kinetics.
5′-Nuclease Stability:_To evaluate the 5′-exonuclease stability of enantiomerically pure (R)- and (S)-5′-C-methyl (C5′-Me) Guanosine substituted nucleosides a dT20 template sequence (“dT20” disclosed as SEQ ID NO: 1) was modified at the 5′-end with one modified nucleotide via PO or PS linkages (Table 13). The structures of the compounds are shown below with guanosine for comparison.
A dT20 template (“dT20” disclosed as SEQ ID NO: 1) having 5′end dT with PS linkages and 5′end Guanosine (G) with either PO or PS linkages were used as the control. ONs were incubated with Phosphodiesterase-II (500 mU/mL), and the half-life (T½) of each modified ON was determined by HPLC-based quantification of the full-length ON as a function of time. The results are summarized in Table 13 and HPLC stability profiles are depicted in FIGS. 24A and 24B showing decay curve of dT20 (SEQ ID NO: 1) modified at the 5′ end with Guanosine and (R) or (S)-5′-C-methyl Guanosine (C5′-MeG) with PO or PS linkages upon incubation with 5′ exonucleases-phosphodiesterase-II as a function of time. FIG. 24A is for the following conditions: a) enzyme conc. 500 mU/mL, Oligo Conc. 0.1 mg/mL, 50 mM NaOAc (pH-6.5):10 Mm MgCl2. FIG. 24B is for the following conditions: enzyme conc. 100 mU/mL, Oligo Conc. 0.1 mg/mL, 50 mM NaOAc (pH-6.5):10 mM MgCl2. The percentage full length ON is calculated by dividing the area under the peak corresponding to full length ON at a given time point by the full length at t=0 and multiplied by 100.
Stability of modified oligonucleotides toward 3′- or 5′-specific exonucleases: Modified oligonucleotides were prepared in a final concentration of 0.1 mg/mL in either 300 mM Tris (pH 7.2), 60 mM MgCl2 or 300 mM sodium acetate (pH 6.5), 60 mM MgCl2 for assessing the stability towards 3′- or 5′-specific exonucleases, respectively. […] Samples were analyzed at given time points for up to 24 h. The quantity of full length oligonucleotides was determined as the area under the curve at A260. Percent full length oligonucleotides was calculated by dividing by the area under the curve at t=0 and multiplying by 100. […]

[1] = tested on: luciferase reporter plasmids (psiCHECK2, Renilla luciferase fused to target sequence); assay: Off-target Dual-Glo luciferase reporter assay in COS-7 cells; format: cell-based; conditions: luciferase reporter plasmids co-transfected with siRNAs into COS-7 cells
Experimental: Dual-Glo® Luciferase assay: Cos7 cells (ATCC, Manassas, VA) were grown to near confluence at 37° C. in an atmosphere of 5% CO2 in DMEM (ATCC) supplemented with 10% FBS, before being released from the plate by trypsinization. siRNA and psiCHCECK2 plasmid transfection was carried out by adding 5 μL of siRNA duplexes and 5 μL of psiCHECK2 plasmid per well along with 5 μL of Opti-MEM plus 0.1 μL of Lipofectamine 2000 per well (Invitrogen, Carlsbad CA. cat #13778-150) and then incubated at room temperature for 15 minutes. The mixture was then added to the cells which were re-suspended in 35 ul of fresh complete media. The transfected cells were incubated at 37° C. in an atmosphere of 5% CO2.
48 hours after the siRNAs and psiCHECK2 plasmid were transfected; Firefly (transfection control) and Renilla (fused to target sequence) luciferase were measured. First, media was removed from cells. Then Firefly luciferase activity was measured by adding 20 μL of Dual-Glo® Luciferase Reagent equal to the culture medium volume to each well and mix. The mixture was incubated at room temperature for 30 minutes before luminescence (500 nm) was measured on a Spectramax (Molecular Devices) to detect the Firefly luciferase signal. Renilla luciferase activity was measured by adding 20 μL of room temperature of Dual-Glo® Stop & Glo® Reagent was added to each well and the plates were incubated for 10-15 minutes before luminescence was again measured to determine the Renilla luciferase signal. The Dual-Glo® Stop & Glo® Reagent, quenches the firefly luciferase signal and sustained luminescence for the Renilla luciferase reaction. siRNA activity was determined by normalizing the Renilla signal to the Firefly (control) signal within each well. The magnitude of siRNA activity was then assessed relative to cells that were transfected with the same vector but were not treated with siRNA or were treated with a non-targeting siRNA. All transfections were done at n=2 or greater.

TTR = assay: In vitro on-target activity, primary mouse hepatocytes, transfection, RT-qPCR (TTR siRNAs); format: cell-based
Experimental: Cell culture and transfections: Primary Mouse Hepatocytes (Thermo Fisher Scientific/Gibco) were transfected by adding 4.9 μL of Opti-MEM plus 0.1 μL of Lipofectamine RNAiMax per well (Invitrogen, cat #13778-150) to 5 μL of siRNA duplexes per well into a 384-well plate and incubated at room temperature for 15 minutes. 40 μL of Dulbecco's Modified Eagle Medium (Hep3b) or William's Medium (PMH) containing ˜5 ×10^3 cells were then added to the siRNA mixture. Cells were incubated for 24 hours at 37° C. and then processed for RNA purification. Experiments were performed at 10 nM and 0.1 nM doses of siRNA.
Total RNA isolation using DYNABEADS mRNA Isolation Kit: RNA was isolated using an automated protocol on a BioTek-EL406 platform using DYNABEADs (Invitrogen, cat #61012). Briefly, 70 μL of Lysis/Binding Buffer and 10 μL of lysis buffer containing 3 μL of magnetic beads were added to each well. Plates were incubated on an electromagnetic shaker for 10 minutes at room temperature and then magnetic beads were captured and the supernatant was removed. Bead-bound RNA was then washed 2 times with 150 μL Wash Buffer A and once with Wash Buffer B. Beads were then washed with 150 μL Elution Buffer, re-captured and supernatant removed.
cDNA synthesis using ABI High capacity cDNA reverse transcription kit (Applied Biosystems, cat #4368813): 12 μL of a master mix containing 1.2 μL 10× Buffer, 0.48 μL 25× dNTPs, 1.2 μL 10× Random primers, 0.6 μL Reverse Transcriptase, 0.6 μL RNase inhibitor and 7.92 μL of H2O per reaction was added to RNA isolated above. Plates were sealed, mixed, and incubated on an electromagnetic shaker for 10 minutes at room temperature, followed by 2 h 37° C.
Real time PCR: 2 μL of cDNA were added to a master mix containing 2 μL water, 0.5 μL of either an appropriate GAPDH TaqMan VIC Probe or the target probe and 5 μL Lightcycler 480 probe master mix (Roche, cat #04887301001) per well in a 384 well plate (Roche, cat #04887301001). Real time PCR was done in a LightCycler480 Real Time PCR system (Roche). Each duplex was tested in quadruplicate and data were normalized to cells transfected with a non-targeting control siRNA. To calculate relative fold change, real time data were analyzed using the ΔΔCt method and normalized to assays performed with cells transfected with a non-targeting control siRNA.
RT qPCR for Ttr mRNA quantification:_Primary mouse hepatocytes (PMH) were cultured in Williams E Medium with 10% fetal bovine serum. Transfection of cells using RNAiMAX reagent was done as per the manufacturer's recommended protocol. Thus, cells were thawed immediately prior to transfection and then plated onto 384-well plates with a seed density of ˜5000 cells/well. Pre-incubated lipid/siRNA complex (0.1 μL RNAiMax, siRNA, in 5 μL Opti-MEM for 15 min) was added to a 384-well collagen-coated plate (BioCoat; Corning) and cells were incubated for 20 h at 37° C. in an atmosphere of 5% CO2. Eight 6-fold serial dilutions ranging from 10 to 0.036 nM were used to perform dose response experiments. Media was removed before washing and lysing the cells. Using Dynabeads mRNA isolation kit according to manufacturer's protocol, RNA was extracted and subsequently reverse-transcribed with the ABI high capacity cDNA reverse transcription kit. Quantification was done by real-time PCR, whereby the cDNA (2 μL) was added to a master mix that contained 0.5 μL mouse Gapdh TaqMan Probe, 0.5 μL Ttr TaqMan probes, and 5 μL Lightcycler 480 probe master mix per well in a 384-well 50 plate. Real-time PCR was accomplished in an ABI 7900HT RT-PCR system using the ΔΔCt (RQ) assay. Each duplex and concentration was tested in four biological replicates. To calculate relative fold change, real time data were analyzed using the ΔΔCt method and normalized to assays performed with cells transfected with 10 nM nonspecific siRNA. IC50 values were calculated using a 4-parameter fit model using XLFit.

[2] = Rat toxicity study, clinical pathology parameters; conditions: rats, single subcutaneous dose 30 mg/kg, cohort average

GpodT19: G(dT)19, 5′ guanosine, PO linkage (DNA rGdTdTdTdTdTdTdTdTdTdTdTdTdTdTdTdTdTdTdT)
Half-lives (T1/2), ty2 (phosphodiesterase II): <1 h
Half-lives (T1/2), t12 (phosphodiesterase II): <1 h

GpsdT19: Gs(dT)19, 5′ guanosine, PS linkage (DNA rG*dTdTdTdTdTdTdTdTdTdTdTdTdTdTdTdTdTdTdT)
Half-lives (T1/2), ty2 (phosphodiesterase II): 41 h

Parent (AD-64958): TTR siRNA; passenger a•a•caguGuUCUugcucuauaa(L), guide u•U•auaGagcaagaAcAcuguu•u•u (sense CAGUGUUCUUGCUCUAUAA; antisense AUAGAGCAAGAACACUGUU; phosphorothioate ends, overhangs, chemistry not fully specified)
IC50 ([1]; TTR (Seq 2)): 0.05 nM
On-Target mRNA remaining (%) 0.1 nM siRNA (TTR; TTR (Seq 2), primary mouse hepatocytes, 0.1 nM siRNA): 25.5%
On-Target mRNA remaining (%) 10 nM siRNA (TTR; TTR (Seq 2), primary mouse hepatocytes, 10 nM siRNA): 2.3%
A/G Avg. [2]: 1.3
ALB Avg. [2]: 2.9 g/dL
ALP Avg. [2]: 427 U/L
ALT Avg. [2]: 108 U/L
AST Avg. [2]: 332 U/L
BILI Avg. [2]: 0.48 mg/dL
CA Avg. [2]: 9.9 mg/dL
CHOL Avg. [2]: 43 mg/dL
CREAT Avg. [2]: 0.21 mg/dL
GLDH Avg. [2]: 140.8 U/L
GLOB Avg. [2]: 2.27 g/dL
GLUC Avg. [2]: 124 mg/dL
K Avg. [2]: 4.9 mmol/L
NA Avg. [2]: 140 mmol/L
PHOS Avg. [2]: 9.0 mg/dL
PROT Avg. [2]: 5 g/dL
TRIG Avg. [2]: 51 mg/dL
UREAN Avg. [2]: 18.6 mg/dL

Parent (AD-125773): TTR siRNA; passenger u•u•cuugCuCUAuaaaccgugu(L), guide a•C•acgguuuauagAgCaagaa•c•a (sense CUUGCUCUAUAAACCGUGU; antisense ACGGUUUAUAGAGCAAGAA; phosphorothioate ends, overhangs, chemistry not fully specified)
IC50 ([1]; TTR-4, modification at antisense position 7): 1.21 nM
IC50 (TTR; TTR-4, modification at antisense position 7, primary mouse hepatocytes): 0.136 nM

SpodT19: (G5m)(dT)19, 5′-end (S)-5′-C-methyl guanosine, PO linkage ([5'S-Me-G]dTdTdTdTdTdTdTdTdTdTdTdTdTdTdTdTdTdTdT)
Half-lives (T1/2), ty2 (phosphodiesterase II): <1 h
Half-lives (T1/2), t12 (phosphodiesterase II): <1 h
